Results reported in patent US12428412B2 (DANA-FARBER CANCER INSTITUTE, INC., priority 2018, dated 2025).

What was measured:
[1] = tested on: Kelly cell lines xenograft; assay: Xenograft model of Kelly cell lines; format: in vivo; conditions: 40 mpk IP from day 10
From the text: The xenograft model of Kelly cell lines was used to assess the in vivo efficacy. The Kelly cells were implanted 2 M into animals. The treatment started with day 10 at 40 mpk IP.

[2] = Tolerability in human CRBN knock in mice; format: in vivo
Method: CPD 1 was tested in mice for maximum tolerated dose (MTD) (FIG. 6A). The mice were treated with 10 mg/kg (mpk), 20 mpk, and 40 mpk with 4 mice in each group. The compound was also tested in human CRBN knock in mice, the blood samples were collected after 21 day treatment. All the tested blood samples were normal.

[3] = tested on: U266 cells; assay: 6-day MTT assay, U266 cells; format: cell-based; conditions: 0-10 μM
Method: Media from cell cultures was discarded. For adherent cells, the media was carefully aspirated. For suspension cells, the 96 well plate at 1,000×g, 4° C., was spun for 5 minutes in a microplate-compatible centrifuge and the media was carefully aspirated. The volume of existing media has to be the same for each sample. Fifty (50) μL of serum-free media and 50 μL of MTT solution were added into each well. The plate was incubated at 37° C. for 3 hours.
After incubation, 150 μL of MTT solvent were added into each well. The plate was wrapped in foil and shaken on an orbital shaker for 15 minutes. Absorbance was read at OD=590 nm. Reading was performed within 1 hour.

[4] = target: T1, CBP (Homo sapiens, UniProt Q92793); assay: Cellular degradation assay (immunoblot) in Kelly NB cells, CBP; format: cell-based
T1 construct: endogenous in cells; host or cells: Kelly neuroblastoma cells (incl. Ch2.2, LACZ and CRBN knockout lines)
Method: Kelly Neuroblastoma cells were seeded at 1,000,000 cells per well in 6 well plates and were treated in a dose-dependent manner for 24 to 72 hours. Whole cell lysates were collected using ice cold lysis buffer [300 mM NaCl, 50 mM Tris-HCl, pH 7.5, 0.5% Triton X-100, 1% SDS, 1 mM dithiothreitol (DTT), Roche® protease inhibitor cocktail (1:000), 25 units/mL Benzonase] and blotted at a protein concentration of 20 μg. Histone extraction was performed using the EpiQuik™ Total Histone Extraction Kit (OP-0006-100, Epigentek) and blotted at a protein concentration of 4 μg.
Whole cell lysates were resolved in NuPAGE® 3-8% Tris-Acetate polyacrylamide gels (EA03785BOX, Invitrogen™) and histone extraction lysates in Bolt 4-12% Bis-Tris polyacrylamide gels (NWO4125BOX, Invitrogen™). Afterwards, gels were transferred to nitrocellulose membranes (LC2001, Invitrogen™). […]
The experimental protocol is the same as in Example 24. The protein level was determined by immunoblot using EP300 antibody, CBP antibody or H3K27ac antibody. […]

[5] = target: T2, EP300 (Homo sapiens, UniProt Q09472); assay: Proteomics analysis in Kelly NB cells, EP300; format: cell-based; conditions: 500 nM, 6 hours and 36 hours
T2 construct: Whole cell lysates were collected using ice cold lysis buffer; endogenous in cells; host or cells: Kelly neuroblastoma cells (incl. Ch2.2, LACZ and CRBN knockout lines)
Method: FIG. 9C is a plot of the proteomics analysis results after treating Kelly NB cells with CPD 1 (500 nM) at 6 hours and 36 hours.

[6] = target: T1, CBP; assay: Immunoblot in CRBN knockout Kelly cell lines, CBP; format: cell-based; conditions: CRBN-1 and CRBN-3 Kelly lines, 500 nM
Method: CPD 1 was tested in CRBN knockout (k/o) Kelly cell lines. The experimental protocol is the same as in Example 24.

[7] = tested on: NB zebra fish model; assay: NB zebra fish model; format: in vivo
Method: Maximum tolerance dose (MTD) of each candidate was determined in zebrafish embryos. 3-day-old zebrafish embryos were exposed to different drug concentrations and monitored for adverse health effects. […] Experiments were first carried out with compound CPD 1 as a guide in the further design of MTD assessment of lead EP300 degraders (FIG. 6B). The MTD of the degrader is also determined in mice in the similar manor. Briefly, mice were dosed with test compounds and blood and plasma is isolated at specific intervals post-administration (0.083, 0.25, 0.5, 1, 2, 4, 8, 12, and 24 h) and quantified for the presence of test article by LC/MS/MS (n=5 mice/compound). In vivo mouse PK experiments were used to determine these parameters and inform iterative rounds of medicinal chemistry for optimization of EP300 degraders (FIG. 6A). As degraders have a relatively large molecular weight, the proper formulation is investigated to increase the solubility and stability of the degraders for in vivo study. Together, these parameters, including the established MTD, are used to guide the in vivo study design, such as administration method, dosing, and schedule for the following experiment. The information obtained was also used to guide the degrader optimization conducted in Example 36.

T1 sequence (Q92793 whole entry): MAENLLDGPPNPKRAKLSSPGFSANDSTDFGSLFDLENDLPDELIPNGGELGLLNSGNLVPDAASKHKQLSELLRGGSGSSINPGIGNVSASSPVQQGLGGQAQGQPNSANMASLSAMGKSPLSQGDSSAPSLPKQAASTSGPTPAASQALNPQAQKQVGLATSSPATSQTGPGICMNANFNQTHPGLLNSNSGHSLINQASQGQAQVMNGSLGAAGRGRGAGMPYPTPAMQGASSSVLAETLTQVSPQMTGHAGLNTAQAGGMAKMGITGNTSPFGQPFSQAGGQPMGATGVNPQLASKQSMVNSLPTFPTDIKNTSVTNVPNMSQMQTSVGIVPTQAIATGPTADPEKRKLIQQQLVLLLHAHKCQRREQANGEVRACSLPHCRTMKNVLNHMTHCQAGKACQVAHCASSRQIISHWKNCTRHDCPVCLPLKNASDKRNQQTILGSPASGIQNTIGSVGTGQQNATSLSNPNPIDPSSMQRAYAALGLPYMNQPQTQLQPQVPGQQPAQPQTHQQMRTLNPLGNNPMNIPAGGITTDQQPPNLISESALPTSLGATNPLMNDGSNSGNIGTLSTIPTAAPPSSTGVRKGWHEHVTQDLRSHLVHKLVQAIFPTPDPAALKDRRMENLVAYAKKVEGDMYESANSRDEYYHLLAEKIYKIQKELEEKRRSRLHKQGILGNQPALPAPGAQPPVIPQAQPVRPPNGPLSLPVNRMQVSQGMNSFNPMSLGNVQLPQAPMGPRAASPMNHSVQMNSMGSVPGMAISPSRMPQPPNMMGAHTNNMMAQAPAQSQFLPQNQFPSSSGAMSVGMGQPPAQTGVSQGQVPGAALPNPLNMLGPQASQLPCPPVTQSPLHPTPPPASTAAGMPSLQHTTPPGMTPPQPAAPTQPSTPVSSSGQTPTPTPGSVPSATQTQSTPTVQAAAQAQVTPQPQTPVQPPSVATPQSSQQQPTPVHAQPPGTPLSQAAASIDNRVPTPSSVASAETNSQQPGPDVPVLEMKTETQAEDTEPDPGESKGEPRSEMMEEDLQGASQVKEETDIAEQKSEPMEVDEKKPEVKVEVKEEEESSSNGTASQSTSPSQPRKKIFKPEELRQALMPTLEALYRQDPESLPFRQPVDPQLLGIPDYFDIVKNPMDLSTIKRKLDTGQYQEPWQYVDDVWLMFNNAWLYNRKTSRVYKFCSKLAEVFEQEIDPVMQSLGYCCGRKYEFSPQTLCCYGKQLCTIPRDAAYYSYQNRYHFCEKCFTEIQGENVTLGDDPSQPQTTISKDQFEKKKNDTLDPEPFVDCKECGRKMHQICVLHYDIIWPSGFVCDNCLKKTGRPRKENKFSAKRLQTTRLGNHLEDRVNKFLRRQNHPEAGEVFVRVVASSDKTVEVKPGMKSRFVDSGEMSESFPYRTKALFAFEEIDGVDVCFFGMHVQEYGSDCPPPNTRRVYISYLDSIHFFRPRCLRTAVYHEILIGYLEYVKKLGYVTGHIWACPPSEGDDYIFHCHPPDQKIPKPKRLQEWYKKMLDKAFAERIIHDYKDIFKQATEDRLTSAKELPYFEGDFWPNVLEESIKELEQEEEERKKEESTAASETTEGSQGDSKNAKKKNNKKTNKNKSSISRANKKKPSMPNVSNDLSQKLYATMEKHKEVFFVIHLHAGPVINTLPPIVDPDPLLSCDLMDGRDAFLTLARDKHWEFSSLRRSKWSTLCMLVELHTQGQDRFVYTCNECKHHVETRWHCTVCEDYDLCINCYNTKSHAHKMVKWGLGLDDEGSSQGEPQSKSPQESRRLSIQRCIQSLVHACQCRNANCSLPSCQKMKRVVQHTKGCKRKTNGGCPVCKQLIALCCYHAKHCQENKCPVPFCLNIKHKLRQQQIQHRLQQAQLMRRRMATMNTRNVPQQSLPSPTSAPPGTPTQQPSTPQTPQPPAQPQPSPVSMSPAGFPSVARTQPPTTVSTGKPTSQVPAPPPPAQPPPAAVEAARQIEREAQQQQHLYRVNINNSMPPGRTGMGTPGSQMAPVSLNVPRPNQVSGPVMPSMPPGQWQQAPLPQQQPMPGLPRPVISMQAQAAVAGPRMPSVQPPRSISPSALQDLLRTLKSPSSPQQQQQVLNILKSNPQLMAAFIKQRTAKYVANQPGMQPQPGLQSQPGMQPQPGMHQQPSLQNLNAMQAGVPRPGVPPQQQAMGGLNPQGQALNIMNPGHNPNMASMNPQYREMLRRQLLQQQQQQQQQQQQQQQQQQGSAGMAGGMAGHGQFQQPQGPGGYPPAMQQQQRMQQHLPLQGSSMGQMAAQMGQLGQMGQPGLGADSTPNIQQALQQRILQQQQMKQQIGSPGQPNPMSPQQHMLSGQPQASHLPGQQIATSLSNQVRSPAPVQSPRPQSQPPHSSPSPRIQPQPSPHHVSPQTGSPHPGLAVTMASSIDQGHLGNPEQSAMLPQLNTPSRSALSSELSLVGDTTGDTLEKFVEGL
T2 sequence (Q09472 whole entry): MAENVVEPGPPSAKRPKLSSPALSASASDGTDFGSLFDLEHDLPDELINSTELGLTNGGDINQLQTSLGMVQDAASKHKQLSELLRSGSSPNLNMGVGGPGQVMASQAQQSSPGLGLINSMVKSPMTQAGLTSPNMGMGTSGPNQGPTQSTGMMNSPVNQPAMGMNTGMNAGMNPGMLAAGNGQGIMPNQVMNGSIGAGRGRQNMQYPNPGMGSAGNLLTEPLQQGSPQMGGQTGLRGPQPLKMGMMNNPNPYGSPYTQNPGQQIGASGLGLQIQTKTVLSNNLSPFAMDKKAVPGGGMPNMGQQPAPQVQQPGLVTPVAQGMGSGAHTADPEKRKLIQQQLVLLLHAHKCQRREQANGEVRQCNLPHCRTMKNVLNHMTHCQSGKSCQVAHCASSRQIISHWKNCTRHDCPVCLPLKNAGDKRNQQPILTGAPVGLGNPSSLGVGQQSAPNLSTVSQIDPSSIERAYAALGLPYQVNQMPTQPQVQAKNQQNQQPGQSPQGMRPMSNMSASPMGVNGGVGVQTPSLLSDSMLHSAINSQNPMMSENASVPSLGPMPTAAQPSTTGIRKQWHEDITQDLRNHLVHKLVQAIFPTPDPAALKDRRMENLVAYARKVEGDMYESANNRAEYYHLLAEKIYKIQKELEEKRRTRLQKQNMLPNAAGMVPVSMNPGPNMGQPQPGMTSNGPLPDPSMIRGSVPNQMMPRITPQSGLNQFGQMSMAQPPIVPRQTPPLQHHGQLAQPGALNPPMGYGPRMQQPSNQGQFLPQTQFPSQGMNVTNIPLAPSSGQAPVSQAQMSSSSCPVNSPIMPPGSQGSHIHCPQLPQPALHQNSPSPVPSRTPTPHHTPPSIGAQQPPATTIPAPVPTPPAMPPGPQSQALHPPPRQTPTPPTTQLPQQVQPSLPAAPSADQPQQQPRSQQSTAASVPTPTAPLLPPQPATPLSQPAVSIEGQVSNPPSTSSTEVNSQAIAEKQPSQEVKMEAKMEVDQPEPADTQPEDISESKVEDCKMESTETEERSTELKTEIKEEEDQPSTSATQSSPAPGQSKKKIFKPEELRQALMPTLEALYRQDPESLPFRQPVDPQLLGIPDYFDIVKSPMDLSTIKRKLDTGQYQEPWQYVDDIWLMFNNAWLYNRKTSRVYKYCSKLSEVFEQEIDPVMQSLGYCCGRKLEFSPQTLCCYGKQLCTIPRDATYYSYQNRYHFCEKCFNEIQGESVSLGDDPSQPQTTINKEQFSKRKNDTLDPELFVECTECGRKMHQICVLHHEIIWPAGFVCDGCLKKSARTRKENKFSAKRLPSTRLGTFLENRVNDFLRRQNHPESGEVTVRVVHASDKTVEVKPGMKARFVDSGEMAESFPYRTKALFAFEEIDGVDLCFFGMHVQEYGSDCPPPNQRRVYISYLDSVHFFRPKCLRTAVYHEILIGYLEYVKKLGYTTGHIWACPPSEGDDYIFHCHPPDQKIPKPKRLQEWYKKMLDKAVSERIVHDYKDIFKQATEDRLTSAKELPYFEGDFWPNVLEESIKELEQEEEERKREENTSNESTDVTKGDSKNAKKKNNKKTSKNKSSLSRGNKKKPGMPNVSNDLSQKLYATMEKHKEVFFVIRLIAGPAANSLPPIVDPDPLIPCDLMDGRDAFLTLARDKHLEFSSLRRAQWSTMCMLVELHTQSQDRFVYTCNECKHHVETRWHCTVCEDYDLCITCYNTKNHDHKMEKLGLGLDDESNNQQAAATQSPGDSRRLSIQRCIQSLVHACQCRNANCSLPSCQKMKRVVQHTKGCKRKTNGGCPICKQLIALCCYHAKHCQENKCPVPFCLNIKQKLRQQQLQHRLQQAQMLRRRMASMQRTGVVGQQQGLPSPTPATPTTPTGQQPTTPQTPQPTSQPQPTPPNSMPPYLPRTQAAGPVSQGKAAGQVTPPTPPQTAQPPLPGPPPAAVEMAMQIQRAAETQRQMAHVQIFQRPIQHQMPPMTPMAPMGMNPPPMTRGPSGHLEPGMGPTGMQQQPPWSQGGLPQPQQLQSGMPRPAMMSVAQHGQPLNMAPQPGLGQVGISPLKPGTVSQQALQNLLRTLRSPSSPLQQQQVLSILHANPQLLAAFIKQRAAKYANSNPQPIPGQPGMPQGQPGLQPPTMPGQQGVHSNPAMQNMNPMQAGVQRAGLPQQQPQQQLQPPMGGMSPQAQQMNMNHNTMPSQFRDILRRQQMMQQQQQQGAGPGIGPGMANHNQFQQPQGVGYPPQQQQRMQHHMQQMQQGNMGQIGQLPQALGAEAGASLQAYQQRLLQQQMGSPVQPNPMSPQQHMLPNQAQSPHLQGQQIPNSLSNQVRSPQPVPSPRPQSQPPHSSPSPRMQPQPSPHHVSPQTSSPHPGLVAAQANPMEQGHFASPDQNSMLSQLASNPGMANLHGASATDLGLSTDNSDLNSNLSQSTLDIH

With `C[C@H](N(Cc1ccc(F)cc1)C(=O)CN1C(=O)O[C@@]2(CCc3cc(NC(=O)CCCCCCCCCCCNc4ccc5c(c4)C(=O)N(C4CCC(=O)NC4=O)C5=O)ccc32)C1=O)C(F)(F)F` (stereo partly drawn) [CPD 1, 12-((2-(2,6-dioxopiperidin-3-yl)-1,3-dioxoisoindolin-5-yl)amino)-N—((R)-3′-(2-((4-fluorobenzyl)((S)-1,1,1-trifluoropropan-2-yl)amino)-2-oxoethyl)-2′,4′-dioxo-2,3-dihydrospiro[indene-1,5′-oxazolidin]-5-yl)dodecanamide] the survival of animals [1] was “extended the survival of animals”, the tumor progression [1] was “reduced tumor progression” and the blood samples ([2]; human CRBN knock in mice, after 21 day treatment) was “normal”. For the same compound, the toxicity ([2]; humanized CRBN mice) was “no toxicity was observed”, the “growth inhibition compared with A485” value [3] was “outperformed inhibitor A485” and the CBP degradation ([4]; after 48 hour) was “degradation of CBP was observed”. The CBP level ([4]; first 36 hours) was “without affecting the CBP level”, the “EP300 degradation (proteomics)” value [5] was “selectively and significantly degraded” and the “CBP degradation in CRBN k/o lines” value [6] was “did not degrade”. The tumor growth inhibition ([7]; NB zebra fish model, 0.25 μM and 0.5 μM) was “tumor growth inhibition” and the “toxicity in zebra fish study” value ([7]; zebra fish) was “No toxicity was observed”.
